Results on eleven compounds are retold here after patent US10105357B2, “Indication of antibiotic drugs for preparation of cancer inhibition pharmaceutical composition” (LAUNX BIOMEDICAL CO., LTD., priority 2014, dated 2018).

Common to all, as to type: cell-based, human
In data set [1] the test system is HL-60 (Acute Promyelocytic Leukemia). Briefly: Cell viability analysis, leukemia HL-60. As to conditions: for viability at 10 µM: Homo sapiens, HL-60, 72 h, read-out: cell viability (survival rate), HL-60, drug 10 μM, 72 hours, WST-1, OD450 nm; for cell viability (survival rate), HL-60: drug 10 μM, 72 hours, WST-1, OD450 nm. Background: Tetrazolium assays rely on reduction of a dye to a coloured formazan, in cell work by metabolically active cells.

Data set [2] concerns A549 (Lung Adenocarcinoma). In words: Cell viability analysis, lung cancer A549. As to conditions: for viability at 10 µM: Homo sapiens, A549, 72 h, read-out: cell viability (survival rate), A549, drug 10 μM, 72 hours, WST-1, OD450 nm.
A further data set relates to cancer cell lines. Briefly: Cell viability analysis (WST-1) on cancer cell lines. As to conditions: drug 10 μM, 72 hours; for inhibition effect on different cancer cell lines: WST-1, Table 3.
For data set [3], the system named is HeLa (Cervix Adenocarcinoma). In words: Cell viability analysis, cervical cancer HeLa. As to conditions: for viability at 10 µM: Homo sapiens, HeLa, 72 h, read-out: cell viability (survival rate), HeLa, drug 10 μM, 72 hours, WST-1, OD450 nm; for cell viability (survival rate), HeLa: drug 10 μM, 72 hours, WST-1, OD450 nm.
For data set [4], the system named is TSGH-8301 (Urinary Bladder Carcinoma). In words: Cell viability analysis, bladder cancer TSGH-8301. As to conditions: for viability at 10 µM: Homo sapiens, 72 h, read-out: cell viability (survival rate), TSGH, drug 10 μM, 72 hours, WST-1, OD450 nm.
Data set [5] concerns LoVo (Colorectal Adenocarcinoma). Briefly: Cell viability analysis, colon cancer LoVo. As to conditions: for viability at 10 µM: Homo sapiens, LoVo, 72 h, read-out: cell viability (survival rate), LoVo, drug 10 μM, 72 hours, WST-1, OD450 nm; for cell viability (survival rate), LoVo: drug 10 μM, 72 hours, WST-1, OD450 nm.
Data set [6] concerns MKN-45 (Gastric Adenocarcinoma). In words: Cell viability analysis, gastric cancer MKN-45. As to conditions: for viability at 10 µM: Homo sapiens, MKN-45, 72 h, read-out: cell viability (survival rate), MKN-45, drug 10 μM, 72 hours, WST-1, OD450 nm.
Data set [7] deals with HI650 (Lung Adenocarcinoma). Briefly: Cell viability analysis, lung cancer HI650. As to conditions: for viability at 10 µM: Homo sapiens, NCI-H1650, 72 h, read-out: cell viability (survival rate), H1650, drug 10 μM, 72 hours, WST-1, OD450 nm; for cell viability (survival rate), H1650: drug 10 μM, 72 hours, WST-1, OD450 nm.
The test system of data set [8] is AGS (Gastric Adenocarcinoma). In words: Cell viability analysis, gastric cancer AGS. As to conditions: for viability at 10 µM: Homo sapiens, 72 h, read-out: cell viability (survival rate), AGS, drug 10 μM, 72 hours, WST-1, OD450 nm; for cell viability (survival rate), AGS: drug 10 μM, 72 hours, WST-1, OD450 nm.
For data set [9], the system named is A375 (Amelanotic Melanoma). Briefly: Cell viability analysis, skin cancer A375. As to conditions: for viability at 10 µM: Homo sapiens, A-375, 72 h, read-out: cell viability (survival rate), A375, drug 10 μM, 72 hours, WST-1, OD450 nm; for cell viability (survival rate), A375: drug 10 μM, 72 hours, WST-1, OD450 nm.
Data set [10] concerns MCF7 (Mammary Gland, Adenocarcinoma). In words: Cell viability analysis, breast cancer MCF7. As to conditions: for viability at 10 µM: Homo sapiens, MCF7, 72 h, read-out: cell viability (survival rate), MCF7, drug 10 μM, 72 hours, WST-1, OD450 nm.
Data set [11] deals with HepG2 (Hepatocellular Carcinoma). Briefly: Cell viability analysis, hepatic cancer HepG2. As to conditions: for viability at 10 µM: Homo sapiens, HepG2, 72 h, read-out: cell viability (survival rate), HepG2, drug 10 μM, 72 hours, WST-1, OD450 nm.
Data set [12] concerns PC3 (p53−) (Prostate Adenocarcinoma). In words: Cell viability analysis, prostate cancer PC3. The note with it: 72 h.
The mark [13] stands for this setting: drug 10 μM, 72 hours, WST-1, OD450 nm.

A word on the viability: it is a read-out of living cells in per cent, often relative to untreated cells.

Consider `C[C@]12CCC(=O)C=C1CC[C@@H]1[C@@H]2[C@@H](O)C[C@@]2(C)[C@H]1CC[C@]2(O)C(=O)CO` [Hydrocortisone (Cortisol), Hydrocortisone], for which the viability at 10 µM stood at 105% in data set [1]; 73.6% in data set [2]; 86.1% in [3]; 125% in data set [4]; 83.3% in [5]; 81.3% in data set [6]. Also, the viability at 10 µM in data set [7] is 66.1%; in data set [8], 77.5%; in data set [9] it was 87.6%; in [10], 76.9%; in data set [11] it was 109%. In addition, the “inhibition effect on different cancer cell lines” value in the data set on cancer cell lines was “significant inhibition effect”.
As to `CC1(C)S[C@@H]2[C@H](NC(=O)[C@H](N)c3ccccc3)C(=O)N2[C@H]1C(=O)O` [Ampicillin sodium], in data set [2] (human, 72 h, 10 µM), the “cell viability (survival rate), A549” value is listed as 102.6. Moreover, the “inhibition effect on different cancer cell lines” value with cancer cell lines is on record as “significant inhibition effect”. Also, the “cell viability (survival rate), PC3” value in data set [12] (human, 10 µM) is recorded as 98.1. Also, the viability at 10 µM came to 75.2% in data set [3]; 72% in [4]; 88.9% in data set [5]; 53.5% in data set [7]; 105% in [8]; 68.9% in data set [9]. Also, the viability at 10 µM in [11] was found to be 76.1%. Further, the “cell viability (survival rate), MKN-45” value in data set [6] (human, 72 h, 10 µM) is on record as 77.9. For the same compound, the “cell viability (survival rate), MCF7” value in data set [10] (human, 72 h, 10 µM) came out at 99.1.
As to `CN(C)CCC(c1ccc(Br)cc1)c1ccccn1` (stereo not shown) [Brompheniramine], the viability at 10 µM in data set [1] is 122%; in [2] it was 109%; in data set [3], 111%; in data set [4], 97.9%; in data set [5] it was 98.9%; in data set [6], 85.8%. The viability at 10 µM in data set [7] came to 83%; in data set [8], 121%; in [10] it was 75.8%; in [11], 95.7%. Further, the “inhibition effect on different cancer cell lines” value in the data set on cancer cell lines is reported as “significant inhibition effect”.
As for `O=C(O)CCCC[C@@H]1SC[C@@H]2NC(=O)N[C@@H]21` [Biotin (Vitamin B7), Biotin], the viability at 10 µM in data set [1] was found to be 85.2%; in data set [2] it was 86.4%; in [3] it was 90.7%; in data set [4] it was 93.5%; in data set [5] it was 99.2%; in data set [6] it was 85.1%. Besides, the viability at 10 µM in [7] worked out at 94.2%; in data set [8], 104%; in [9] it was 71.3%; in data set [10] it was 89.1%. Further, the “inhibition effect on different cancer cell lines” value with cancer cell lines is listed as “significant inhibition effect”.
As for `[H]/N=C(/N)NS(=O)(=O)c1ccc(N)cc1` [Sulfaguanidine], the viability at 10 µM in [1] came out at 99.1%; in [2] it was 82.2%; in [3] it was 113%; in [4] it was 107%; in [5], 78.9%; in [6], 83.5%. Besides, the viability at 10 µM in data set [7] came to 95.6%; in [8] it was 84%; in data set [9] it was 145%; in data set [10], 92.6%; in [11], 96.1%. In the data set with cancer cell lines, the “inhibition effect on different cancer cell lines” value is “significant inhibition effect”.
Take `CC(=O)OCC1=C(C(=O)O)N2C(=O)[C@@H](NC(=O)CSc3ccncc3)[C@H]2SC1` [Cephapirin Sodium]: the viability at 10 µM in data set [1] stood at 84.3%; in [2], 57.7%; in data set [3], 69.2%; in data set [4], 78.2%; in [5], 92.8%; in data set [6] it was 69.1%. The viability at 10 µM turned out to be 76.2% in data set [7]; 79.8% in data set [8]; 50.2% in [9]; 49.5% in data set [10]; 79.8% in data set [11]. Moreover, the “inhibition effect on different cancer cell lines” value in the data set on cancer cell lines is reported as “significant inhibition effect”.
Turning to `Cc1cccn2c(=O)c(-c3nnn[nH]3)cnc12` [Pemirolast (BMY 26517) potassium, Pemirolast potassium], the viability at 10 µM was 82.9% in [2]; 53.8% in data set [12] (Homo sapiens, read-out: cell viability (survival rate), PC3, drug 10 μM, 72 hours, WST-1, OD450 nm); 88.4% in [3]; 93.7% in data set [4]; 107% in data set [5]; 81.8% in [7]. The viability at 10 µM in [8] amounted to 69.4%; in data set [9], 70.8%; in data set [10] it was 83.2%; in data set [11], 82.1%. Besides, in the data set on cancer cell lines, the “inhibition effect on different cancer cell lines” value is “significant inhibition effect”.
For `CCN1CCN(C(=O)N[C@@H](C(=O)N[C@@H]2C(=O)N3[C@@H]2SC(C)(C)[C@@H]3C(=O)O)c2ccccc2)C(=O)C1=O` [Piperacillin Sodium], the viability at 10 µM in data set [1] amounted to 108%; in data set [2], 37.1%; in [4] it was 87.1%; in data set [5], 97.4%; in [6], 87.1%; in data set [7], 71.6%. Further, the viability at 10 µM in data set [8] is 98.3%; in [9] it was 67.9%; in data set [10], 52.3%; in data set [11], 96.3%. In addition, the “inhibition effect on different cancer cell lines” value in the data set with cancer cell lines was “significant inhibition effect”.
As to `C[C@@H](O)[C@H]1C(=O)N2C(C(=O)O)=C(S[C@@H]3CN[C@H](CNS(N)(=O)=O)C3)[C@H](C)[C@H]12` [Doripenem Hydrate], the viability at 10 µM in [1] worked out at 91.2%; in [2] it was 70.9%; in data set [3], 122%; in [4] it was 79.9%; in data set [5] it was 95.2%; in data set [6], 111%. For the same compound, the viability at 10 µM in [7] came to 78.5%; in data set [8] it was 66.5%; in data set [10] it was 99.8%; in data set [11] it was 106%. Besides, in the data set with cancer cell lines, the “inhibition effect on different cancer cell lines” value is “significant inhibition effect”.
Take Colistin Sulfate: the “cell viability (survival rate), HL-60” value in data set [1] came out at 108.9. The “cell viability (survival rate), A549” value in data set [2] (setting [13]) is reported as 97.6. Besides, the “inhibition effect on different cancer cell lines” value in the data set on cancer cell lines is reported as “significant inhibition effect”. The “cell viability (survival rate), HeLa” value in data set [3] turned out to be 84.3. Also, in [4] (setting [13]), the “cell viability (survival rate), TSGH” value is on record as 36.2. The “cell viability (survival rate), LoVo” value in data set [5] is 92.0. In addition, the “cell viability (survival rate), H1650” value in data set [7] was 62.2. In data set [8], the “cell viability (survival rate), AGS” value was found to be 26.1. Besides, the “cell viability (survival rate), A375” value in data set [9] was 36.1. Besides, the “cell viability (survival rate), HepG2” value in data set [11] (setting [13]) worked out at 77.7.
“Salbutamol sulfate [Salbutamol sulfate (Albuterol)]”: in data set [1], the “cell viability (survival rate), HL-60” value is on record as 104.1. Also, the “cell viability (survival rate), A549” value in data set [2] (setting [13]) is 94.6. Besides, the “Inhibitory effect on cancer cell line” value in the data set with cancer cell lines (WST-1, OD450 nm, Table 2: drugs which do not have significant inhibitory effect) amounted to 0. Moreover, the “inhibition effect on different cancer cell lines” value in the data set on cancer cell lines was “significant inhibition effect”. For the same compound, the “cell viability (survival rate), HeLa” value in data set [3] is recorded as 99.9. Further, in data set [5], the “cell viability (survival rate), LoVo” value is 97.1. Besides, the “cell viability (survival rate), MKN-45” value in [6] (setting [13]) was 71.2. For the same compound, in data set [7], the “cell viability (survival rate), H1650” value turned out to be 84.3. Besides, the “cell viability (survival rate), AGS” value in [8] was 91.8. In [9], the “cell viability (survival rate), A375” value is reported as 98.0. Besides, the “cell viability (survival rate), MCF7” value in data set [10] (setting [13]) came to 139.6.
